The values that follow come from publication PMC3392537 (Neuropharmacology, 2012).

Structures are written as SMILES.

Assay [1] addresses α3(2)β4(2)α5 (β4–6–α3 concatamer + α5) (Homo sapiens, UniProt P30926+P32297). In words: two-electrode voltage clamp, Xenopus oocytes. It counts as cell-based.
A further assay concerns the target rat α3β4 (Rattus norvegicus, UniProt P04757+P12392). In words: two-electrode voltage clamp, Xenopus oocytes. The format is cell-based. In general terms: Two-electrode voltage clamp is typically applied to oocytes expressing channels or transporters.

Chain of rat α3β4 (P04757 26-499): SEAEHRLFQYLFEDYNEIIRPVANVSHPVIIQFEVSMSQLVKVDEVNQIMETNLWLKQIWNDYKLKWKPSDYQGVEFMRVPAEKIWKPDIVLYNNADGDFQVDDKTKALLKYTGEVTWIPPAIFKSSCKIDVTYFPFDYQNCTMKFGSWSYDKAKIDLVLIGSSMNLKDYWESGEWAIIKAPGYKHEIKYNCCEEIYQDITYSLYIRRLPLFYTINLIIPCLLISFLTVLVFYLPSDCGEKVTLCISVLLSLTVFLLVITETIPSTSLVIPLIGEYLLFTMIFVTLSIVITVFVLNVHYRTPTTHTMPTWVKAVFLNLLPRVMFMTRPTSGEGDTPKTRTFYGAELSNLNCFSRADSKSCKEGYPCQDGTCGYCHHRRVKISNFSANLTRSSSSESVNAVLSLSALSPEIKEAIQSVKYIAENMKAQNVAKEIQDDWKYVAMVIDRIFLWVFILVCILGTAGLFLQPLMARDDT
Chain of rat α3β4 (P12392 21-495): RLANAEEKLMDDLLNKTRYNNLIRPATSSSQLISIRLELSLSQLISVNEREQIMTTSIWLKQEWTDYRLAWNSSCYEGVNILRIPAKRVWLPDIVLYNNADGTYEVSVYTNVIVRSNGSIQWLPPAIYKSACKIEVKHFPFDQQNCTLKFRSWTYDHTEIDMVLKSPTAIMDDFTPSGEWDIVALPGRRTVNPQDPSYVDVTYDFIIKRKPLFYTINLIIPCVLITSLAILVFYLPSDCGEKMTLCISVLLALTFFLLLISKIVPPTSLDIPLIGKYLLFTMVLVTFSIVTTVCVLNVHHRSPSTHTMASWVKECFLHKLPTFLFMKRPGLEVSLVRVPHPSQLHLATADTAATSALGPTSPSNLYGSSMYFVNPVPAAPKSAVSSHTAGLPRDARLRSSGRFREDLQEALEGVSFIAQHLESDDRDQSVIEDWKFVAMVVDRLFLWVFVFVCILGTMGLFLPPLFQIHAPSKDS
Chain of α3(2)β4(2)α5 (β4–6–α3 concatamer + α5) (P32297 32-505): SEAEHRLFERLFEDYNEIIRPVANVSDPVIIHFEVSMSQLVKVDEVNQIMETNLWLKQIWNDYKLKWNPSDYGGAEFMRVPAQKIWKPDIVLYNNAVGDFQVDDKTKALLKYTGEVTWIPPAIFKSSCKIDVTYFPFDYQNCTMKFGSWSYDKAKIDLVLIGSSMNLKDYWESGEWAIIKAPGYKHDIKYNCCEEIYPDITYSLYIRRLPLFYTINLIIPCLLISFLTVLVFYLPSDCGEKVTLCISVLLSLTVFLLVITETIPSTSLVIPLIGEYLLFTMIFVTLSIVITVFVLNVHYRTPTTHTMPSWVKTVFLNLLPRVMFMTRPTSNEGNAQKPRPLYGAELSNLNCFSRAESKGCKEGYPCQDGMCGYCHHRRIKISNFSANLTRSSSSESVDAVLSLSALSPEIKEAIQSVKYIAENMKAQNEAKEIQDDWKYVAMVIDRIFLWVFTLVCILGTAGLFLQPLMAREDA
Chain of α3(2)β4(2)α5 (β4–6–α3 concatamer + α5) (P30926 22-498): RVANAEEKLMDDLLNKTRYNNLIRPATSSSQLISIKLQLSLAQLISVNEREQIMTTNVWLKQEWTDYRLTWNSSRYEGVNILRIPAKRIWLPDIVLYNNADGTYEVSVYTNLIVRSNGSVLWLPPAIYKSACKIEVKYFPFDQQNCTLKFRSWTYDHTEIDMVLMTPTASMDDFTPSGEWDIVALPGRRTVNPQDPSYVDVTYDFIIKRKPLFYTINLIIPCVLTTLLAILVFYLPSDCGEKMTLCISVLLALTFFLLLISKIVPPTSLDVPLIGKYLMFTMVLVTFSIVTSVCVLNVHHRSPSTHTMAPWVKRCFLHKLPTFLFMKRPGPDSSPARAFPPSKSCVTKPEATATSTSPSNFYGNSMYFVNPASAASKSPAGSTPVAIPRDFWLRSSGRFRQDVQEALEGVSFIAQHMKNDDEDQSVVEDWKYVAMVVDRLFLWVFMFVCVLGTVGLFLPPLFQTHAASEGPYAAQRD
Chain of α3(2)β4(2)α5 (β4–6–α3 concatamer + α5) (P30532 23-468 partner): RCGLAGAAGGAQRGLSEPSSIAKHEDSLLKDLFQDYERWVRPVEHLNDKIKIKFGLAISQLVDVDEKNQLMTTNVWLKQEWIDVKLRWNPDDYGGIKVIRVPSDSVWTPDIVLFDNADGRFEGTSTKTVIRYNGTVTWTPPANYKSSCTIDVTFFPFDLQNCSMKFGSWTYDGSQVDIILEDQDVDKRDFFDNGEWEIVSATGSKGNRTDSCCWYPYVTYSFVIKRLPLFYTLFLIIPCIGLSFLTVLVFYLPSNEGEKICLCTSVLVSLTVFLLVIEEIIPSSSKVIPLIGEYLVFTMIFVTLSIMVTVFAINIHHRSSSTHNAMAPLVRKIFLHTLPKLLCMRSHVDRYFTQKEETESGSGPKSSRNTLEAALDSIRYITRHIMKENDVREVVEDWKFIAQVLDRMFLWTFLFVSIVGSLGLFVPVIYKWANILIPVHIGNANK

What is called IC50 is the midpoint of a concentration-inhibition curve. For the compound `COc1ccc(C=C2CCCN=C2c2cccnc2)c(OC)c1` [GTS-21, 3-(2,4dimethoxybenzylidene)anabaseine], the IC50 in assay [1] was 9.17 ± 1.08 µM.
The term EC50 denotes the concentration that produces a half-maximal response. `O=c1cccc2n1C[C@@H]1CNC[C@H]2C1` [cytisine] displayed a concentration giving a half-maximal response (EC50) on rat α3β4 of 520 ± 50 µM.
Same read-out and setting: then `c1cnc2cc3c(cc2n1)C1CNCC3C1` [varenicline], with 28 ± 3.2 µM.
